Measured values as given in the supplement of paper PMC8671470.

test system: MOLM-13; test: cell viability (% survival relative to DMSO control, bortezomib = 0%); higher = less cytotoxic; conditions: 100 nM; 72 h
Method in brief: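 Percent survival figures are means of duplicate wells. They were obtained by CellTiter-Glo luminescence after 10 AML and 5 CML cell lines spent 72 h at 37 °C with 5% CO2 in 384-well plates with compounds at 1, 10, 100, 1000 or 10000 nM. Vehicle was set to 100% and a 10 µM positive control to 0%.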

SMILES | cell viability
CCCCC/C=C\C/C=C\C/C=C\C/C=C\CCCC(=O)C(F)(F)F [Arachidonyl trifluoromethyl ketone] | 85.8%
O=[As]O[As]=O (stereo not given) [Arsenic trioxide] | 124%

same assay, conditions: 1000 nM; 72 h

SMILES | cell viability
CC(=O)N1CCN(c2ccc(OC[C@@H]3CO[C@@](Cn4ccnc4)(c4ccc(Cl)cc4Cl)O3)cc2)CC1 (racemic) [Ketoconazole] | 104%
CCC(CC#N)OC(=O)N[C@@H](C)c1cccc(NC(=O)Nc2ccc(-c3cnco3)c(OC)c2)c1 (stereo in doubt) [AVN-944] | 1.17%
OC[C@H]1OC(O)C[C@@H](O)[C@@H]1O (stereo not given in full) [2-deoxyglucose] | 90.1%
O=C(C(=O)c1ccc(Br)cc1)c1ccc(Br)cc1 [4,4'-Dibromobenzil] | 87.5%
NS(=O)(=O)c1ccc(NC(=O)Cc2ccccc2)cc1 [4-(2-Phenylacetamido)Benzenesulfonamide] | 84.6%
NCc1ccc(S(N)(=O)=O)cc1 [4-Homosulfanilamide] | 80%
Oc1ncc(F)c(O)n1 [5-fluorouracil] | 22.4%
NCc1ccc(-c2cccnc2)s1 [(5-Pyrid-3-YLTHIEN-2-YL)METHYLAMINE] | 97.8%
CC(=O)N[C@@H](CS)C(=O)O [Acetylcysteine] | 110%
CCCCC/C=C\C/C=C\C/C=C\C/C=C\CCCC(=O)C(F)(F)F [Arachidonyl trifluoromethyl ketone] | 102%
O=[As]O[As]=O (stereo not given) [Arsenic trioxide] | 102%

same assay, conditions: 10000 nM; 72 h

SMILES | cell viability
CC(=O)N1CCN(c2ccc(OC[C@@H]3CO[C@@](Cn4ccnc4)(c4ccc(Cl)cc4Cl)O3)cc2)CC1 (racemic) [Ketoconazole] | 88.1%
CCC(CC#N)OC(=O)N[C@@H](C)c1cccc(NC(=O)Nc2ccc(-c3cnco3)c(OC)c2)c1 (stereo in doubt) [AVN-944] | 0.252%
OC[C@H]1OC(O)C[C@@H](O)[C@@H]1O (stereo not given in full) [2-deoxyglucose] | 86.4%
O=C(C(=O)c1ccc(Br)cc1)c1ccc(Br)cc1 [4,4'-Dibromobenzil] | 93.8%
NS(=O)(=O)c1ccc(NC(=O)Cc2ccccc2)cc1 [4-(2-Phenylacetamido)Benzenesulfonamide] | 81.3%
NCc1ccc(S(N)(=O)=O)cc1 [4-Homosulfanilamide] | 105%
Oc1ncc(F)c(O)n1 [5-fluorouracil] | 2.01%
NCc1ccc(-c2cccnc2)s1 [(5-Pyrid-3-YLTHIEN-2-YL)METHYLAMINE] | 91.8%
CC(=O)N[C@@H](CS)C(=O)O [Acetylcysteine] | 105%
CCCCC/C=C\C/C=C\C/C=C\C/C=C\CCCC(=O)C(F)(F)F [Arachidonyl trifluoromethyl ketone] | 86.4%
O=[As]O[As]=O (stereo not given) [Arsenic trioxide] | 18.5%

test system: HEL; test: not given; conditions: 72 h
Method in brief: (§1)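 Seeded in RPMI 1640 at densities within the linear growth range, fifteen myeloid leukaemia cell lines were dispensed into 384-well plates with acoustically pre-printed compounds spanning five tenfold doses from 1 to 10,000 nM, in duplicate. The plates were kept for 72 h at 37 °C in 5% CO2 before luminescent ATP viability was measured and normalised to vehicle and to a positive control at 10 µM. Curves were fitted with a four-parameter log-logistic model. The IC50 was taken from those curves.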

SMILES | IC50 (cell viability)
CC(=O)N1CCN(c2ccc(OC[C@@H]3CO[C@@](Cn4ccnc4)(c4ccc(Cl)cc4Cl)O3)cc2)CC1 (racemic) [Ketoconazole] | > 10 µM
CCC(CC#N)OC(=O)N[C@@H](C)c1cccc(NC(=O)Nc2ccc(-c3cnco3)c(OC)c2)c1 (stereo in doubt) [AVN-944] | 0.151 µM
OC[C@H]1OC(O)C[C@@H](O)[C@@H]1O (stereo not given in full) [2-deoxyglucose] | > 10 µM
O=C(C(=O)c1ccc(Br)cc1)c1ccc(Br)cc1 [4,4'-Dibromobenzil] | > 10 µM
NS(=O)(=O)c1ccc(NC(=O)Cc2ccccc2)cc1 [4-(2-Phenylacetamido)Benzenesulfonamide] | > 10 µM
NCc1ccc(S(N)(=O)=O)cc1 [4-Homosulfanilamide] | > 10 µM
Oc1ncc(F)c(O)n1 [5-fluorouracil] | 2.3 µM
NCc1ccc(-c2cccnc2)s1 [(5-Pyrid-3-YLTHIEN-2-YL)METHYLAMINE] | > 10 µM
CC(=O)N[C@@H](CS)C(=O)O [Acetylcysteine] | > 10 µM
CCCCC/C=C\C/C=C\C/C=C\C/C=C\CCCC(=O)C(F)(F)F [Arachidonyl trifluoromethyl ketone] | > 10 µM
O=[As]O[As]=O (stereo not given) [Arsenic trioxide] | > 10 µM

test system: THP-1; test: not given; conditions: 72 h
Method in brief: as §1

SMILES | IC50 (cell viability)
CC(=O)N1CCN(c2ccc(OC[C@@H]3CO[C@@](Cn4ccnc4)(c4ccc(Cl)cc4Cl)O3)cc2)CC1 (racemic) [Ketoconazole] | > 10 µM
CCC(CC#N)OC(=O)N[C@@H](C)c1cccc(NC(=O)Nc2ccc(-c3cnco3)c(OC)c2)c1 (stereo in doubt) [AVN-944] | 1.9 µM
OC[C@H]1OC(O)C[C@@H](O)[C@@H]1O (stereo not given in full) [2-deoxyglucose] | > 10 µM
O=C(C(=O)c1ccc(Br)cc1)c1ccc(Br)cc1 [4,4'-Dibromobenzil] | > 10 µM
NS(=O)(=O)c1ccc(NC(=O)Cc2ccccc2)cc1 [4-(2-Phenylacetamido)Benzenesulfonamide] | > 10 µM
NCc1ccc(S(N)(=O)=O)cc1 [4-Homosulfanilamide] | > 10 µM
Oc1ncc(F)c(O)n1 [5-fluorouracil] | > 10 µM
NCc1ccc(-c2cccnc2)s1 [(5-Pyrid-3-YLTHIEN-2-YL)METHYLAMINE] | > 10 µM
CC(=O)N[C@@H](CS)C(=O)O [Acetylcysteine] | > 10 µM
CCCCC/C=C\C/C=C\C/C=C\C/C=C\CCCC(=O)C(F)(F)F [Arachidonyl trifluoromethyl ketone] | > 10 µM
O=[As]O[As]=O (stereo not given) [Arsenic trioxide] | > 10 µM

test system: MV4-11; test: not given; conditions: 72 h
Method in brief: as §1

SMILES | IC50 (cell viability)
CC(=O)N1CCN(c2ccc(OC[C@@H]3CO[C@@](Cn4ccnc4)(c4ccc(Cl)cc4Cl)O3)cc2)CC1 (racemic) [Ketoconazole] | > 10 µM
CCC(CC#N)OC(=O)N[C@@H](C)c1cccc(NC(=O)Nc2ccc(-c3cnco3)c(OC)c2)c1 (stereo in doubt) [AVN-944] | 0.0781 µM
OC[C@H]1OC(O)C[C@@H](O)[C@@H]1O (stereo not given in full) [2-deoxyglucose] | > 10 µM
O=C(C(=O)c1ccc(Br)cc1)c1ccc(Br)cc1 [4,4'-Dibromobenzil] | > 10 µM
NS(=O)(=O)c1ccc(NC(=O)Cc2ccccc2)cc1 [4-(2-Phenylacetamido)Benzenesulfonamide] | > 10 µM
NCc1ccc(S(N)(=O)=O)cc1 [4-Homosulfanilamide] | > 10 µM
Oc1ncc(F)c(O)n1 [5-fluorouracil] | 0.435 µM
NCc1ccc(-c2cccnc2)s1 [(5-Pyrid-3-YLTHIEN-2-YL)METHYLAMINE] | > 10 µM
CC(=O)N[C@@H](CS)C(=O)O [Acetylcysteine] | > 10 µM
CCCCC/C=C\C/C=C\C/C=C\C/C=C\CCCC(=O)C(F)(F)F [Arachidonyl trifluoromethyl ketone] | > 10 µM
O=[As]O[As]=O (stereo not given) [Arsenic trioxide] | 4.27 µM

test system: KCL-22; test: not given; conditions: 72 h
Method in brief: as §1

SMILES | IC50 (cell viability)
CC(=O)N1CCN(c2ccc(OC[C@@H]3CO[C@@](Cn4ccnc4)(c4ccc(Cl)cc4Cl)O3)cc2)CC1 (racemic) [Ketoconazole] | 8.91 µM
CCC(CC#N)OC(=O)N[C@@H](C)c1cccc(NC(=O)Nc2ccc(-c3cnco3)c(OC)c2)c1 (stereo in doubt) [AVN-944] | 0.0628 µM
OC[C@H]1OC(O)C[C@@H](O)[C@@H]1O (stereo not given in full) [2-deoxyglucose] | > 10 µM
O=C(C(=O)c1ccc(Br)cc1)c1ccc(Br)cc1 [4,4'-Dibromobenzil] | > 10 µM
NS(=O)(=O)c1ccc(NC(=O)Cc2ccccc2)cc1 [4-(2-Phenylacetamido)Benzenesulfonamide] | > 10 µM
NCc1ccc(S(N)(=O)=O)cc1 [4-Homosulfanilamide] | > 10 µM
Oc1ncc(F)c(O)n1 [5-fluorouracil] | 2.68 µM
NCc1ccc(-c2cccnc2)s1 [(5-Pyrid-3-YLTHIEN-2-YL)METHYLAMINE] | > 10 µM
